Stability data for one molecule are collected here from ChEMBL document CHEMBL1154299, “Human liver microsomal metabolism of (+)-discodermolide” (J Nat Prod, 2009).

Type in all cases: ADME
For data set [1], the system named is Liver microsomes. The experiment in a line: Metabolic stability in human liver microsome at 10 uM after 15 mins in the absence of NADPH by LC-MS analysis. Particulars: 0.25 h.
For data set [2], the system named is Liver microsomes. Description: Metabolic stability in heat inactivated human liver microsome at 10 uM after 15 mins in the presence of NADPH by LC-MS analysis. As to conditions: 0.25 h.
Data set [3] concerns Liver microsomes. The experiment in a line: Metabolic stability in human liver microsome at 10 uM in the presence of NADPH assessed as level of metabolites after 5 mins by LC-MS analysis.
Data set [4] deals with Liver microsomes. The experiment in a line: Metabolic stability in human liver microsome at 10 uM in the presence of NADPH assessed as level of metabolites after 1 mins by LC-MS analysis.

As to `C=C/C=C\[C@H](C)[C@H](OC(N)=O)[C@@H](C)[C@H](O)[C@@H](C)C/C(C)=C\[C@H](C)[C@@H](O)[C@@H](C)/C=C\[C@@H](O)C[C@@H]1OC(=O)[C@H](C)[C@@H](O)[C@H]1C` [DISERMOLIDE], the Stability entry was “Stable” in the data set on Liver microsomes [1], “Stable” with Liver microsomes [2], “Unstable” with Liver microsomes [3] and “Unstable” with Liver microsomes [4].
